Source: patent US10363239B2, “Method for inhibiting growth of cancer cells” (Pain Therapeutics, Inc., priority 2013, dated 2019)
Where two headings read alike, the source gives them in different places.

Key:
[1] = target: FLNA pentapeptide of SEQ ID NO: 1 (Bn-VAKGL) (Homo sapiens, UniProt P21333); experiment: FITC-NLX-based FLNA screening assay (inhibition of FITC-naloxone binding to Bn-VAKGL on streptavidin plates); details: for inhibition at 0.01 µM / inhibition at 0.1 µM / inhibition at 1 µM: 10 nM FITC-NLX
mu opiate receptor (MOR) = experiment: MOR agonist activity using [35S]GTPγS binding assay in striatal membranes; format: biochemical
Method: To assess the mu opiate receptor (MOR) agonist activity of positive compounds from the FLNA screening, compounds were tested in a [^35S]GTPγS binding assay using striatal membranes. […] This assay measures a functional consequence of receptor occupancy at one of the earliest receptor-mediated events. The assay permits traditional pharmacological parameters of potency, efficacy and antagonist affinity, with the advantage that agonist measures are not subjected to amplification or other modulation that may occur when analyzing parameters further downstream of the receptor.
Thus, striatal tissue was homogenized in 10 volumes of ice cold 25 mM HEPES buffer, pH 7.4, which contained 1 mM EGTA, 100 mM sucrose, 50 μg/ml leupeptin, 0.04 mM PMSF, 2 μg/ml soybean trypsin inhibitor and 0.2% 2-mercaptoethanol. The homogenates were centrifuged at 800×g for 5 minutes and the supernatants were centrifuged at 49,000×g for 20 minutes. The resulting pellets were suspended in 10 volume of reaction buffer, which contained 25 mM HEPES, pH 7.5, 100 mM NaCl, 50 μg/ml leupeptin, 2 μg/ml soybean trypsin inhibitor, 0.04 mM PMSF and 0.02% […].
The resultant striatal membrane preparation (200 μg) was admixed and maintained (incubated) at 30° C. for 5 minutes in reaction buffer as above that additionally contained 1 mM MgCl2 and 0.5 nM [^35S]GTPγS (0.1 μCi/assay, PerkinElmer Life and Analytical Sciences) in a total volume of 250 μl and continued for 5 minutes in the absence or presence of 0.1-10 μM of an assayed compound of interest. The reaction was terminated by dilution with 750 μl of ice-cold reaction buffer that contained 20 mM MgCl2 and 1 mM EGTA and immediate centrifugation at 16,000×g for 5 minutes.
The resulting pellet was solubilized by sonicating for 10 seconds in 0.5 ml of immunoprecipitation buffer containing 0.5% digitonin, 0.2% sodium cholate and 0.5% NP-40. Normal rabbit serum (1 μl) was added to 1 ml of lysate and incubated at 25° C. for 30 minutes. Nonspecific immune complexes were removed by incubation with 25 μl of protein A/G-conjugated agarose beads at 25° C. for 30 minutes followed by centrifugation at 5,000×g at 4° C. for 5 minutes. The supernatant was divided and separately incubated at 25° C. for 30 minutes with antibodies raised against Gαo proteins (1:1,000 dilutions).
The immunocomplexes so formed were collected by incubation at 25° C. for 30 minutes with 40 μl of agarose-conjugated protein A/G beads and centrifugation at 5,000×g at 4° C. for 5 minutes. The pellet was washed and suspended in buffer containing 50 mM Tris-HCl, pH 8.0, and 1% NP-40. The radioactivity in the suspension was determined by liquid scintillation spectrometry.

[2] = read-out: Percent Binding Inhibition, FLNA-binding compound 0.01 μM
[3] = read-out: Percent Binding Inhibition, FLNA-binding compound 0.1 μM
[4] = read-out: Percent Binding Inhibition, FLNA-binding compound 1 μM
[5] = Series C-2, 0.1 μM compound, relative to DAMGO
[6] = Series C-2, 0.1 μM compound, [35S]GTPγS binding to Gαo, striatal membranes
[7] = Series C-2, 1 μM compound + 1 μM β-FNA
[8] = Series C-2, 1 μM compound + β-FNA, relative to DAMGO + BFNA
[9] = Series C-2, 1 μM compound, relative to DAMGO
[10] = Series C-2, 1 μM compound, [35S]GTPγS binding to Gαo, striatal membranes
[11] = FLNA-binding compound 0.01 μM, read-out: Percent Binding Inhibition
[12] = FLNA-binding compound 0.1 μM, read-out: Percent Binding Inhibition
[13] = FLNA-binding compound 1 μM, read-out: Percent Binding Inhibition
[14] = Series B, 0.1 μM compound, relative to DAMGO
[15] = Series B, 0.1 μM compound, [35S]GTPγS binding to Gαo, striatal membranes
[16] = Series B, 1 μM compound + 1 μM β-FNA
[17] = Series B, 1 μM compound + β-FNA, relative to DAMGO + BFNA
[18] = Series B, 1 μM compound, relative to DAMGO
[19] = Series B, 1 μM compound, [35S]GTPγS binding to Gαo, striatal membranes

| Structure (SMILES) | inhibition at 0.01 µM [1, 2] [%] | inhibition at 0.1 µM [1, 3] [%] | inhibition at 1 µM [1, 4] [%] | inhibition at 0.01 µM [1, 11] [%] | inhibition at 0.1 µM [1, 12] [%] | inhibition at 1 µM [1, 13] [%] | % DAMGO (0.1 μM) (mu opiate receptor (MOR); [14]) [%] | MOR agonist activity, percent [35S]GTPγS binding at the stated compound concentration (mu opiate receptor (MOR); [15]) [%] | MOR agonist activity, percent [35S]GTPγS binding at the stated compound concentration (mu opiate receptor (MOR); [16]) [%] | % DAMGO + BFNA (mu opiate receptor (MOR); [17]) [%] | % DAMGO (1 μM) (mu opiate receptor (MOR); [18]) [%] | MOR agonist activity, percent [35S]GTPγS binding at the stated compound concentration (mu opiate receptor (MOR); [19]) [%] | other results |
| --- | --- | --- | --- | --- | --- | --- | --- | --- | --- | --- | --- | --- | --- |
| CC(=O)c1ccc(S(=O)(=O)N2CCOC23CCN(C)CC3)cc1 [Compound C0093M] | 44.8 | 49.9 | 53.5 | – | – | – | – | – | – | – | – | – | % DAMGO (0.1 μM) (mu opiate receptor (MOR); [5]): 81.3%; MOR agonist activity, percent [35S]GTPγS binding at the stated compound concentration (mu opiate receptor (MOR); [6]): 140.0%; MOR agonist activity, percent [35S]GTPγS binding at the stated compound concentration (mu opiate receptor (MOR); [7]): 44.0%; % DAMGO + BFNA (mu opiate receptor (MOR); [8]): 127.5%; % DAMGO (1 μM) (mu opiate receptor (MOR); [9]): 96.4%; MOR agonist activity, percent [35S]GTPγS binding at the stated compound concentration (mu opiate receptor (MOR); [10]): 211.8% |
| CC1CCC(C(C)C)C(OCC(O)CN2CCCCC2=O)C1 (stereo not shown) [Compound A0036] | – | – | – | 45.6 | 50.1 | 54.4 | – | – | – | – | – | – | MOR agonist activity ([35S]GTPγS binding), FLNA-Binding Compound as Agonist 0.1 μM (mu opiate receptor (MOR); 0.1 μM compound): 144.1%; % DAMGO (0.1 μM) (mu opiate receptor (MOR); 0.1 μM compound relative to DAMGO): 73.4%; MOR agonist activity ([35S]GTPγS binding), FLNA-Binding Compound as Agonist 1 μM (mu opiate receptor (MOR); 1 μM compound): 167.5%; MOR agonist activity ([35S]GTPγS binding), FLNA-Binding Compound as Agonist 1 μM + BFNA (mu opiate receptor (MOR); 1 μM compound + 1 μM β-funaltrexamine): 63.2%; % DAMGO + BFNA (mu opiate receptor (MOR); 1 μM compound + BFNA relative to DAMGO + BFNA): 85.5%; % DAMGO (1 μM) (mu opiate receptor (MOR); 1 μM compound relative to DAMGO): 60.7% |
| COc1c2c(cc3c1C(CC(=O)Cc1ccc(Br)cc1)[N+](C)(C)CC3)OCO2 (stereo not shown) [Compound B0011] | 40.9 | 50.3 | 55.8 | – | – | – | 95.7 | 158.6 | 78.0 | 120.0 | 78.7 | 212.6 | – |
| O=[N+]([O-])c1ccc(S(=O)(=O)N2CCC3(CC2)NCCS3)cc1 [Compound C0044] | – | – | – | 37.3 | 43.9 | 50.6 | – | – | – | – | – | – | % DAMGO (0.1 μM) (mu opiate receptor (MOR); [5]): 102.8%; MOR agonist activity, percent [35S]GTPγS binding at the stated compound concentration (mu opiate receptor (MOR); [6]): 173.7%; MOR agonist activity, percent [35S]GTPγS binding at the stated compound concentration (mu opiate receptor (MOR); [7]): 59.1%; % DAMGO + BFNA (mu opiate receptor (MOR); [8]): 356.0%; % DAMGO (1 μM) (mu opiate receptor (MOR); [9]): 128.0%; MOR agonist activity, percent [35S]GTPγS binding at the stated compound concentration (mu opiate receptor (MOR); [10]): 280.1% |
| COc1c2c(cc3c1C(CC(=O)c1ccc(C#N)cc1)[N+](C)(C)CC3)OCO2 (stereo not shown) [Compound B0001] | 37.1 | 48.8 | 54.3 | – | – | – | 77.4 | 128.2 | 28.0 | 43.1 | 74.9 | 202.3 | – |
| CS(=O)(=O)c1ccc(S(=O)(=O)N2CCOC23CCN(CC2CC2)CC3)cc1 [Compound C0126M] | – | – | – | 50.7 | 55.4 | 67.3 | – | – | – | – | – | – | % DAMGO (0.1 μM) (mu opiate receptor (MOR); [5]): 108.5%; MOR agonist activity, percent [35S]GTPγS binding at the stated compound concentration (mu opiate receptor (MOR); [6]): 181.8%; MOR agonist activity, percent [35S]GTPγS binding at the stated compound concentration (mu opiate receptor (MOR); [7]): 108.5%; % DAMGO + BFNA (mu opiate receptor (MOR); [8]): 228.4%; % DAMGO (1 μM) (mu opiate receptor (MOR); [9]): 119.3%; MOR agonist activity, percent [35S]GTPγS binding at the stated compound concentration (mu opiate receptor (MOR); [10]): 265.3% |
| COc1ccc(CCC(O)CC2c3c(cc4c(c3OC)OCO4)CC[N+]2(C)C)cc1 (stereo not shown) [Compound B0049] | 32.2 | 40.1 | 47.1 | – | – | – | 102.8 | 181.6 | 133.2 | 506.5 | 143.1 | 364.0 | – |
| O=S(=O)(c1csc2ccccc12)N1CCC2(CC1)OCCN2S(=O)(=O)c1csc2ccccc12 [Compound C0150M] | 47.3 | 51.8 | 61.4 | – | – | – | – | – | – | – | – | – | % DAMGO (0.1 μM) (mu opiate receptor (MOR); Series C-1, 0.1 μM compound, relative to DAMGO): 97.2%; Concentration of FLNA-Binding Compound as Agonist 0.1 μM (mu opiate receptor (MOR); Series C-1, 0.1 μM compound, [35S]GTPγS binding to Gαo, striatal membranes): 167.1%; Concentration of FLNA-Binding Compound as Agonist 1 μM + BFNA (mu opiate receptor (MOR); Series C-1, 1 μM compound + 1 μM β-FNA): 93.4%; % DAMGO + BFNA (mu opiate receptor (MOR); Series C-1, 1 μM compound + β-FNA, relative to DAMGO + BFNA): 173.2%; % DAMGO (1 μM) (mu opiate receptor (MOR); Series C-1, 1 μM compound, relative to DAMGO): 129.8%; Concentration of FLNA-Binding Compound as Agonist 1 μM (mu opiate receptor (MOR); Series C-1, 1 μM compound, [35S]GTPγS binding to Gαo, striatal membranes): 423.1% |
| COc1cc(CC(=O)CC2c3c(cc4c(c3OC)OCO4)CC[N+]2(C)C)cc(OC)c1OC (stereo not shown) [Compound B0008] | 35.5 | 40.3 | 52.8 | – | – | – | 84.0 | 148.3 | 46.0 | 70.0 | 101.9 | 264.1 | – |
| COc1ccc(CCC(=O)CC2c3c(cc4c(c3OC)OCO4)CC[N+]2(C)C)c(OC)c1 (stereo not shown) [Compound B0043] | 30.8 | 39.2 | 46.8 | – | – | – | 42.4 | 74.8 | 166.4 | 632.7 | 97.6 | 248.1 | – |
| COc1c2c(cc3c1C(CC(=O)CCc1ccc(O)cc1)[N+](C)(C)CC3)OCO2 (stereo not shown) [Compound B0028] | 38.2 | 42.8 | 49.1 | – | – | – | 103.5 | 199.1 | 55.0 | 125.3 | 131.0 | 357.7 | – |
| COc1cccc(CCC(=O)CC2c3c(cc4c(c3OC)OCO4)CC[N+]2(C)C)c1 (stereo not shown) [Compound B0034] | 49.1 | 54.2 | 59.1 | – | – | – | 71.6 | 122.5 | 41.8 | 80.2 | 88.1 | 235.2 | – |
| NS(=O)(=O)c1ccc(S(=O)(=O)N2CCC3(CC2)NCCO3)cc1 [Compound C0034-3] | – | – | – | 29.6 | 38.3 | 44.8 | – | – | – | – | – | – | – |
| O=C1CNC2(CCN(S(=O)(=O)c3ccc(O)cc3)CC2)N1Cc1ccccc1 [Compound C0148M] | – | – | – | 46.2 | 52 | 57 | – | – | – | – | – | – | – |
| COc1ccc2c3c1O[C@H]1C(=O)CC[C@@]4(O)[C@@H](C2)N(C)CC[C@]314 [oxycodone, reference compound] | – | – | – | – | – | – | – | – | – | – | – | – | Inhibition of 10 nM FITC-conjugated NLX binding to biotinylated FLNA pentapeptide (FIG. 28) ([1]; 10 μM): minimal binding inhibition |
| O=C1CNC2(CCN(CC3CC3)CC2)N1 [Compound C0123M] | – | – | – | 51.9 | 60.5 | 62.9 | – | – | – | – | – | – | – |
